# Article PMC11851464, “Development of a Spectrophotometric Assay for the Cysteine Desulfurase from Staphylococcus aureus” (Antibiotics, 2025)
# How the values were obtained:
# [1] = target: T1, cysteine desulfurase SufS (SaSufS) (Staphylococcus aureus, UniProt A0A0H2XHJ5); assay: spectrophotometric […] nm assay after […] h incubation; UV-Vis of PLP adduct; type: biochemical
# [2] = target: T1, cysteine desulfurase SufS (SaSufS); assay: spectrophotometric […] nm assay after […] h incubation; Ala-NDA assay (IC50 […]); UV-Vis of PLP adduct; type: biochemical
# T1 sequence (A0A0H2XHJ5 1-413): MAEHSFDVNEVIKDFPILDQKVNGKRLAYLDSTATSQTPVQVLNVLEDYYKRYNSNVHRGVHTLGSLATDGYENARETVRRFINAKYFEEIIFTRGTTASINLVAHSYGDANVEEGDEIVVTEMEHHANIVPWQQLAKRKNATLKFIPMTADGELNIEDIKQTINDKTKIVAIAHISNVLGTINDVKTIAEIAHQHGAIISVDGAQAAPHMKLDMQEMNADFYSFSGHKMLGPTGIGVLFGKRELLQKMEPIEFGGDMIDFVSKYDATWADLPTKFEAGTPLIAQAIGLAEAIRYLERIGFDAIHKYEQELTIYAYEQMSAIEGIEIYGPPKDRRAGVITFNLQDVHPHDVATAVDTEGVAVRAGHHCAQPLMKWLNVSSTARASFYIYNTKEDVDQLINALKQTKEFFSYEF
SMILES,IC50 [1] [µM],IC50 [2] [µM]
"N[C@@H]1CON=C1O [DCS, D-cycloserine]",2170 ± 920,
"N[C@H]1CONC1=O [LCS, L-cycloserine]",,62 ± 23
